The values below come from US20210255184A1, “Biosensor Device and Methods” (The New Zealand Institute for Plant and Food Research …, priority 2018, published 2021).

One test addresses T1, Or22a/Orco (Drosophila melanogaster, UniProt P81909).
T1 construct: his-tag; made in house; host or cells: baculovirus-infected Sf9 cells
T1 sequence (P81909 1-397): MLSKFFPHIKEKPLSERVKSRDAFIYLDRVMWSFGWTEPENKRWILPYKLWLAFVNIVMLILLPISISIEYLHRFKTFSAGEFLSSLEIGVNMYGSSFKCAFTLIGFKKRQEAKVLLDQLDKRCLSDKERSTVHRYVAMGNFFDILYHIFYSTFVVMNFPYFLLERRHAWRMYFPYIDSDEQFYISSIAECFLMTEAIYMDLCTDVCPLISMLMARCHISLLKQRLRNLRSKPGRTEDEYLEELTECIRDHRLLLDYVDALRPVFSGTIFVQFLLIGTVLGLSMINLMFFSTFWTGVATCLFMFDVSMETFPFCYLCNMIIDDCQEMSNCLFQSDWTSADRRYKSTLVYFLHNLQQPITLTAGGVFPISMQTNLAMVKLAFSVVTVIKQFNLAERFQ
T1 sequence (Q9VNB5 1-486 partner): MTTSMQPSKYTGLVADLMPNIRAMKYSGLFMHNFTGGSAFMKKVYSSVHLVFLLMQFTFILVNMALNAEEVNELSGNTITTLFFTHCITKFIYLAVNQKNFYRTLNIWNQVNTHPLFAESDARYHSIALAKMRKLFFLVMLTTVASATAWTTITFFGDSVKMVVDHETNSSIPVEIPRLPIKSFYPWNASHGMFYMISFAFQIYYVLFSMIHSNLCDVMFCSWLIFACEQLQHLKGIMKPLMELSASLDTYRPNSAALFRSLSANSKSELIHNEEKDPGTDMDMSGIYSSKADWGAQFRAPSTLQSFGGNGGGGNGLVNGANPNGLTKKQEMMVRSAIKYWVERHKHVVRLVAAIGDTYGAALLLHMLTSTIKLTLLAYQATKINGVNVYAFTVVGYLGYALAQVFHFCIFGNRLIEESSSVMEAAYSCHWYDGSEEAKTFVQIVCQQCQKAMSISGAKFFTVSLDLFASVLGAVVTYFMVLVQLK
The test is described as follows: GFET sensor, Or22a/Orco liposomes. In kind it is biochemical. Particulars: Table 4, GFET. From the text:
(§1) The GFETs used in this study were fabricated from a predeposited graphene film on 300 nm SiO2 coated Si substrate from ACS Suppliers, USA. The FETs consist of a channel with dimensions of 100 μm width and […]. The key steps involved in fabricating the GFET on a Si/SiO2 substrate is schematically illustrated in FIG. 12. The source and drain electrodes were defined by photolithography and formed by successive deposition of Cr and Au. Both the drain and source electrodes were then encapsulated using AZ1518 photoresist and a channel with dimensions of 100 μm width and 10 μm length was left open to the environment for gating and functionalisation.
(§2) The OR liposomes were functionalised onto the graphene surface via a non-covalent route using PBASE as the molecular linker as shown in FIG. 13. The OR liposomes were diluted at 1:10 ratio with 1×PBS (pH7.4). The cleaned GFETs were immersed in 1 mM PBASE solution in methanol for 1 hour. […]
(§3) Electrical sensor measurements of OR liposome functionalised GFETs were carried out using top liquid gate morphology as shown in the schematic in FIG. 15 (a). […] The transfer characteristics of the different graphene FETs (FIG. 15 (b) to (g)) were measured at Vds=1 mV while the liquid gate voltage Vlg was swept from −0.5 V to 1 V with an interval of 20 mV. […]

A further test addresses T2, Or10a/Orco (Drosophila melanogaster, UniProt Q9VYZ1).
T2 construct: his-tag; made in house; host or cells: baculovirus-infected Sf9 cells
T2 sequence (Q9VYZ1 1-406): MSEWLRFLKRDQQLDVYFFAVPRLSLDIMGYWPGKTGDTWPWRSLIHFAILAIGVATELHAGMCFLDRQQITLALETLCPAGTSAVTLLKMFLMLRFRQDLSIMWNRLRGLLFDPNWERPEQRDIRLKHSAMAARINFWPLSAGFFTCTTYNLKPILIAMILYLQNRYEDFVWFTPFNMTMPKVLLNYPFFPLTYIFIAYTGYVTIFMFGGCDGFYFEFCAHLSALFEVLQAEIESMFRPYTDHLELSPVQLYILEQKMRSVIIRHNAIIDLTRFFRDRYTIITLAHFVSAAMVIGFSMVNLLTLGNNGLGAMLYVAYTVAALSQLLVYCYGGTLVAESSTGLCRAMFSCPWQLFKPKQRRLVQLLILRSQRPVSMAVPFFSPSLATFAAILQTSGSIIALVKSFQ
T2 sequence (Q9VNB5 1-486 partner): T1 sequence (Q9VNB5 1-486 partner)
The test is described as follows: GFET sensor, Or10a/Orco liposomes. In kind it is biochemical. Particulars: Table 4, GFET.
Source text: as §1, §2, §3

For the compound `CCCCCC(=O)OC` [methyl hexanoate], at Or22a/Orco, the “Detection Range” value is given as 10^−13-10^−8 M and the EC50 (in general, the concentration giving half of the maximal effect) came to 3.91 pM.

In the case of `COC(=O)c1ccccc1O` [methyl salicylate], on Or10a/Orco, the “Detection Range” value is 10^−13-10^−8 M and it took 2.07 pM to reach a half-maximal effect (EC50).
